The text below walks through data of patent US20260028364A1, “CATIONIC CHROMENONES AND THEIR USE IN ONCOLOGY” (FLORATEK PHARMA S.A., priority 2022, published 2026).

Holding throughout (format): cell-based
Experiment [1] has as its system Wnt/Beta-Catenin. Put plainly: SelectScreen CellSensor pathway inhibition, Wnt/Beta-Catenin. To be noted: Homo sapiens, HCT-116; LEF-TCF-bla HCT116, no stimulus (constitutively activated). As for the experimental part: Inhibition of various cellular pathways known to be involved in malignancy was tested using the SelectScreen Cell-based Pathway Profiling GeneBLAzer™ cell signaling pathway specific CellSensor™ cell lines ((Thermo Fisher). The assay is based on a beta-lactamase reporter activity which is modulated and can be measured quantitatively and selectively with the LiveBLAzer™-FRET B/G Loading Substrate. SelectScreen Cell-Based Pathway Profiling Service uses XLfit from IDBS. The dose response curve is curve fit to model number 205 (sigmoidal dose-response model). Custom logic was built by Thermo Fisher for the data analysis tool to address the different compound characteristics that can be observed with functional assays.
Wnt/Beta-Catenin—LEF-TCF-bla HCT116—Inhibitor Screen, Constitutively Activated
LEF-TCF-bla HCT116 cells are thawed and resuspended in Assay Media (OPTI-MEM, 0.5% dialyzed FBS, 0.1 mM NEAA, 1 mM Sodium Pyruvate, 100 U/mL/100 μg/mL Pen/Strep) to a concentration of 312,500 cells/mL. 32 μL of cell suspension is added to each well of a 384-well Poly-D-Lysine assay plate. Cells in Assay Media are incubated for 16-24 hours in the plate at 37° C./5% CO2 in a humidified incubator. 4 μL of a 10× serial dilution of ICG-001 (control inhibitor starting concentration, 25,000 nM) or compounds are added to appropriate wells of the plate. […] The plate is read on a fluorescence plate reader.

The test system of experiment [2] is MCF-7. Kind of experiment: CellTiter-Glo cell viability, MCF-7. To be noted: Homo sapiens, MCF7; MCF-7 cells, 72 h with compound. On the procedure:
(§1) Antitumor activity against a panel of cancer cell lines Antitumor activity of the compounds was assessed by using the CellTiter-Glow® Luminescent Cell Viability assay (Promega #G7572) according to the manufacturer's instructions. The compounds were tested at 5 or 6 concentrations in 1:2 dilution increments (highest concentration 10 µM) in triplicate well conditions.
(§2) Tumor cells were grown at 37° C. in a humidified atmosphere with 5% CO2 in RPMI 1640 or DMEM medium, supplemented with 10% (v/v) fetal calf serum and 50 μg/ml gentamicin for up to 20 passages, and were passaged once or twice weekly. Cells were harvested using TrypLE or PBS buffer containing 1 mM EDTA, and the percentage of viable cells is determined using a cell counter.
(§3) Cells were harvested from exponential phase cultures, counted and plated in 96 well flat-bottom microtiter plates at a cell density depending on the cell line's growth rate (4,000-20,000 cells/well depending on the cell line's growth rate) in RPMI 1640 or DMEM medium supplemented with 10% (v/v) fetal calf serum and 50 μg/ml gentamicin (140 μl/well). Cultures were incubated at 37° C. and 5% CO2 in a humidified atmosphere. After 24 h, 10 μl of test compounds or control medium are added, and left on the cells for another 72 h. Compounds were serially diluted in DMSO, transferred in cell culture medium, and added to the assay plates. The DMSO concentration was kept constant at <0.2% v/v across the assay plate. Viability of cells was quantified by the CellTiter-Glow® Luminescent Cell Viability assay (Promega #G7572). Luminescence was measured with the microplate luminometer (En Vision Perkin Elmer).
(§4) Sigmoidal concentration-response curves were fitted to the data points (test-versus-control, T/C values) obtained for each tumor model using Graph Pad prism 5.02 software. IC50 values are reported as absolute IC50 values, being the concentration of test compound at the intersection of the concentration-response curves with T/C=50%.
(ATP-based viability assays read luminescence as a measure of living cells.)

Experiment [3] concerns MeWo. Put plainly: Caspase-Glo 3/7 apoptosis assay, MeWo. To be noted: MeWo cells, 10 μM, 24 h. On the procedure:
Apoptosis activity was evaluated using Caspase-Glo 3/7 Assay kit (Promega-G8091) according to the manufacturer's instructions. Cells were grown as above and harvested from exponential phase cultures, counted and plated in 96 black well flat-bottom microtiter plates at a cell density depending on the cell line's growth rate (3,000-10,000 cells/well depending on the cell line's growth rate). Following an overnight incubation, compounds were added to the cell plates at various concentrations (highest at […]) with the DMSO concentration maintained at 0.1% for a 24 h period treatment. 100 μL of Caspase-Glo 3/7 Reagent was added to each well of 96-well plate containing 100 μL culture medium, and after 30 min at room temperature, luminescence was measured with the microplate luminometer (EnVision Perkin Elmer). The induced relative Caspase 3/7 activity of the tested compounds was determined by the following formula: Relative Caspase 3/7 activity (fold increase)=(RLU compound−RLU blank)/(RLU control−RLU blank).

For experiment [4], the system named is HCC-15. Put plainly: CellTiter-Glo cell viability, HCC-15. To be noted: HCC15; HCC-15 cells, 72 h with compound. As for the experimental part: as §1, §2, §3, §4

As to `COc1ccc2c(=O)c(-c3ccc(CCCC[P+](c4ccccc4)(c4ccccc4)c4ccccc4)cc3)coc2c1OC.[Br-]` [SND470, (4-(4-(7,8-Dimethoxy-4-oxo-4H-chromen-3-yl)phenyl)butyl)triphenylphosphonium bromide], the figures for the IC50 in experiment [1], in experiment [2] and in experiment [4] were 970 nM, 21 nM and 10 nM, respectively. For the same compound, in experiment [3], the “Fold activation of Caspase 3/7” value is listed as 2.55 Fold.

The term IC50 denotes the concentration that inhibits the measured activity by half.
